This test addresses canine TRPM8 (Canis lupus familiaris, UniProt Q1A7N1). Kind of test: In Vitro Canine TRPM8 Functional Assay (Ca2+ fluorescence, icilin activation). Type of test: cell-based. The following applies: for inhibition at 0.2 µM / % Inh @ 0.2 (μM): compound at 0.2 μM, canine TRPM8, icilin activation; for inhibition at 0.2 µM: read-out: % Inh @ 0.2; for IC50: HEK293 cells stably expressing canine TRPM8, icilin activation, eight-point dose-response, read-out: IC50. The method in brief: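 Cells (HEK293, stable canine TRPM8) are seeded 24 h before assay. They are then dye-loaded with Calcium 3 at 37 °C followed by room temperature. Compound is added and monitored for 5 min, after which icilin (~80% maximal response) is added.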

Data on 31 molecules can be found in patent US9434711B2 (Janssen Pharmaceutica, NV, priority 2007, dated 2016).

canine TRPM8, sequence (Q1A7N1 1-1104): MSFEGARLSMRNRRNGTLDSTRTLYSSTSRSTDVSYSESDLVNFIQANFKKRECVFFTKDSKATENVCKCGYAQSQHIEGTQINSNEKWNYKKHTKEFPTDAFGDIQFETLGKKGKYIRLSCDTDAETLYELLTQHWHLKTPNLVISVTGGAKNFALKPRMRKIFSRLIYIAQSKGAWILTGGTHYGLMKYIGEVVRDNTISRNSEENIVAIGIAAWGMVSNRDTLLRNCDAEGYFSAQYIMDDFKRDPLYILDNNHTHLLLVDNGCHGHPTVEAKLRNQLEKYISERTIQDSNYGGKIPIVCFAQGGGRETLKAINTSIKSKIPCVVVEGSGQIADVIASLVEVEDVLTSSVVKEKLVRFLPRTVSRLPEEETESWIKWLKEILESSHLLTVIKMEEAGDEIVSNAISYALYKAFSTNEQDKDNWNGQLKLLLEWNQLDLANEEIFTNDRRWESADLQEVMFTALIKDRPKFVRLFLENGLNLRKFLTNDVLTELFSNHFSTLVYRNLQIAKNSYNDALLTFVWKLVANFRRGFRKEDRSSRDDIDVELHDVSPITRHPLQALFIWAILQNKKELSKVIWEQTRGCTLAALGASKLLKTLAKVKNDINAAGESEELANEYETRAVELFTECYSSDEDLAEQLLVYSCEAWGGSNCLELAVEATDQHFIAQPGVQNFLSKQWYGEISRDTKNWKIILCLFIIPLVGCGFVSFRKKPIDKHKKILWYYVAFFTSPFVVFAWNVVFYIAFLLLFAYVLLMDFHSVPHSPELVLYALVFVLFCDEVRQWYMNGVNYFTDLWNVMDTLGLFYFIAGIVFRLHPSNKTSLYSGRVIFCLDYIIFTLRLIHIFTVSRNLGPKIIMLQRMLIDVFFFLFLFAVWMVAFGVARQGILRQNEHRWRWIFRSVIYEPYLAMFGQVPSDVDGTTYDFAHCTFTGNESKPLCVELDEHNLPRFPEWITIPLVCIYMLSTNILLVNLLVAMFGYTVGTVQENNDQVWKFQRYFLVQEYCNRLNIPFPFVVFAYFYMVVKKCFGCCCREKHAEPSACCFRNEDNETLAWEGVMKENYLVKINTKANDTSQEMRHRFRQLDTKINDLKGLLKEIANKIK

Take `Cc1c(N(Cc2ccc(F)c(C(F)(F)F)c2)S(=O)(=O)c2ccc(-c3cc(C(F)(F)F)on3)s2)sc2ccccc12` [Compound 329, N-(3-Methyl-benzo[b]thiophen-2-yl)-N-(4-fluoro-3-trifluoromethyl-benzyl)-5-(5-trifluoromethyl-isoxazol-3-yl)-thien-2-ylsulfonamide]: the inhibition at 0.2 µM amounted to 17%. As to `Cc1c(N(Cc2ccc(F)c(C(F)(F)F)c2)S(=O)(=O)c2cnc(Cl)c(Br)c2)sc2ccccc12` [Compound 330, N-(3-Methyl-benzo[b]thiophen-2-yl)-N-(4-fluoro-3-trifluoromethyl-benzyl)-5-bromo-6-chloro-pyridin-3-ylsulfonamide], the IC50 turned out to be 88 nM and the inhibition at 0.2 µM was found to be 80%. In the same order, the values of `Cc1c(N(Cc2ccc(F)c(C(F)(F)F)c2)S(=O)(=O)c2cnc(Cl)c(Cl)c2)sc2ccccc12` [Compound 331, N-(3-Methyl-benzo[b]thiophen-2-yl)-N-(4-fluoro-3-trifluoromethyl-benzyl)-5,6-dichloro-pyridin-3-ylsulfonamide] are 90 nM and 71%. For the molecule `Cc1nnc(-c2cccc(S(=O)(=O)N(Cc3ccc(F)c(C(F)(F)F)c3)c3sc4ccccc4c3C)c2)o1` [Compound 333, N-(3-Methyl-benzo[b]thiophen-2-yl)-N-(4-fluoro-3-trifluoromethyl-benzyl)-3-(5-methyl-[1,3,4]oxadiazol-2-yl)-benzenesulfonamide], the IC50 was found to be 9 nM and the inhibition at 0.2 µM was 101%. Turning to `Cc1c(N(Cc2ccc(F)c(C(F)(F)F)c2)S(=O)(=O)c2ccc(-c3cnco3)cc2)sc2ccccc12` [Compound 334], the IC50 came out at 6 nM and the inhibition at 0.2 µM was 98%. Turning to `CC(O)c1c(N(Cc2ccc(F)c(C(F)(F)F)c2)S(=O)(=O)c2ccc(C(=O)O)cc2)sc2ccccc12` (stereo not shown) [Compound 335, N-(4-Fluoro-3-trifluoromethyl-benzyl)-N-[3-(1-hydroxy-ethyl)-benzo[b]thiophen-2-yl]-4-carboxybenzenesulfonamide], the IC50 came out at 1 nM and the inhibition at 0.2 µM came out at 101%. Turning to `CC(=O)Nc1ccc(S(=O)(=O)N(Cc2ccc(F)c(C(F)(F)F)c2)c2sc3ccccc3c2C)cc1Cl` [Compound 336, N-(3-Methyl-benzo[b]thiophen-2-yl)-N-(4-fluoro-3-trifluoromethyl-benzyl)-(3-chloro-4-acetamide)-benzenesulfonamide], the 50% inhibitory concentration (IC50) stood at 15 nM and the “% Inh @ 0.2 (μM)” value was determined as 101%. Take `Cc1c(N(Cc2ccc(F)c(C(F)(F)F)c2)S(=O)(=O)c2c(Cl)nc3sccn23)sc2ccccc12` [Compound 337]: the half-inhibitory concentration (IC50) came to 19 nM and the “% Inh @ 0.2 (μM)” value was 101%.

As to `O=S(=O)(c1cnccc1Cl)N(Cc1ccc(F)c(C(F)(F)F)c1)c1sc2ccccc2c1Cl` [Compound 338, N-(3-Chloro-benzo[b]thiophen-2-yl)-N-(4-fluoro-3-trifluoromethyl-benzyl)-4-chloro-pyridin-3-ylsulfonamide], the IC50 stood at 29 nM. Consider `O=S(=O)(c1ccc(Cl)nc1)N(Cc1ccc(F)c(C(F)(F)F)c1)c1sc2ccccc2c1Cl` [Compound 338], for which the inhibition at 0.2 µM is 95%.

Turning to `CCCCN(c1sc2ccccc2c1C(C)=O)S(=O)(=O)c1ccc(C(=O)OC)cc1` [Compound 339, N-(3-Acetyl-benzo[b]thiophen-2-yl)-N-(butyl)-4-carbomethoxy-benzenesulfonamide], the IC50 turned out to be 26.2 nM and the inhibition at 0.2 µM amounted to 94%. Consider `CCCCN(c1cc2ccccc2s1)S(=O)(=O)c1cccnc1` [Compound 340, N-(Benzo[b]thiophen-2-yl)-N-(butyl)-pyridin-3-yl-sulfonamide], for which the inhibition at 0.2 µM worked out at 52%.

Take `CCCCN(c1sc2ccccc2c1C(C)(C)O)S(=O)(=O)c1ccc(C(C)(C)O)cc1` [Compound 341, N-(Butyl)-N-(3-(1-hydroxy-1-methyl-ethyl)-benzo[b]thiophen-2-yl)-4-(2-1-hydroxy-1-methyl-ethyl)-benzenesulfonamide]: the IC50 came out at 14 nM and the “% Inh @ 0.2 (μM)” value was found to be 96%. Regarding `CCCCN(c1sc2ccccc2c1C(C)=O)S(=O)(=O)c1ccc(C(=O)O)cc1` [Compound 342, N-(3-Acetyl-benzo[b]thiophen-2-yl)-N-(butyl)-4-carboxy-benzenesulfonamide], the IC50 worked out at 13 nM and the inhibition at 0.2 µM was 100%. In the same order, the values of `CCCCN(c1sc2ccccc2c1C(C)(C)O)S(=O)(=O)c1ccc(C(=O)O)cc1` [Compound 343, N-(Butyl)-N-(3-(1-hydroxy-1-methyl-ethyl)-benzo[b]thiophen-2-yl)-4-carboxy-benzenesulfonamide] are 19 nM and 98%. With `CCCCN(c1sc2ccccc2c1C(C)(C)O)S(=O)(=O)c1ccc(C(C)=O)cc1` [Compound 344, N-(Butyl)-N-(3-(1-hydroxy-1-methyl-ethyl)-benzo[b]thiophen-2-yl)-4-acetyl-benzenesulfonamide], the IC50 stood at 12.7 nM and the inhibition at 0.2 µM stood at 99%. Regarding `CCCCN(c1sc2ccccc2c1Br)S(=O)(=O)c1cccnc1` [Compound 345, N-(3-Bromobenzo[b]thiophen-2-yl)-N-(butyl)-pyridin-3-yl-sulfonamide], the IC50 stood at 26.5 nM and the inhibition at 0.2 µM was 99%.

As to `CCS(=O)(=O)N(Cc1ccc(F)c(C(F)(F)F)c1)c1sc2ccccc2c1CN(C)C` [Compound 346, N-(3-Dimethylaminomethyl-benzo[b]thiophen-2-yl)-N-(4-fluoro-3-trifluoromethyl-benzyl)-ethanesulfonamide], the IC50 came to 43.8 nM and the inhibition at 0.2 µM amounted to 95%. With `CCS(=O)(=O)N(Cc1ccc(F)c(C(F)(F)F)c1)c1sc2ccccc2c1CNC` [Compound 347, N-(4-Fluoro-3-trifluoromethyl-benzyl)-N-(3-methylaminomethyl-benzo[b]thiophen-2-yl)-ethanesulfonamide], the IC50 turned out to be 57.1 nM and the inhibition at 0.2 µM is 95%.

For the molecule `CCCNCc1c(N(Cc2ccc(F)c(C(F)(F)F)c2)S(=O)(=O)CC)sc2ccccc12` [Compound 348, N-(4-Fluoro-3-trifluoromethyl-benzyl)-N-(3-propylaminomethyl-benzo[b]thiophen-2-yl)-ethanesulfonamide], the inhibition at 0.2 µM was 60%. `CCS(=O)(=O)N(Cc1ccc(F)c(C(F)(F)F)c1)c1sc2ccccc2c1CN1CCCC1` [Compound 349, N-(4-Fluoro-3-trifluoromethyl-benzyl)-N-(3-pyrrolidin-1-yl-methyl-benzo[b]thiophen-2-yl)-ethanesulfonamide]: the “% Inh @ 0.2 (μM)” value was found to be 42%. Regarding `CS(=O)(=O)CS(=O)(=O)N(Cc1ccc(F)c(C(F)(F)F)c1)c1sc2ccccc2c1Br` [Compound 350, N-(3-Bromo-benzo[b]thiophen-2-yl)-N-(4-fluoro-3-trifluoromethyl-benzyl)-C-methanesulfonyl-methanesulfonamide], the inhibition at 0.2 µM amounted to 48%. On to `CC(=O)c1ccc(S(=O)(=O)N(CCCC(F)(F)F)c2sc3ccccc3c2C)cc1` [Compound 351, N-(3-Methyl-benzo[b]thiophen-2-yl)-N-(4,4,4-trifluoro-butyl)-4-acetyl-benzenesulfonamide], for which the IC50 was found to be 21.2 nM and the inhibition at 0.2 µM came out at 97%. The corresponding values for `CC(=O)c1ccc(S(=O)(=O)N(Cc2ccc(F)c(C(F)(F)F)c2)c2sc3ccccc3c2C)cc1` [Compound 352, N-(3-Methyl-benzo[b]thiophen-2-yl)-N-(4-fluoro-3-trifluoromethyl-benzyl)-4-acetyl-benzenesulfonamide] are 8.6 nM and 96%. For `Cc1nccc(-c2cccc(S(=O)(=O)N(Cc3ccc(F)c(C(F)(F)F)c3)c3sc4ccccc4c3C)c2)n1` [Compound 353, N-(3-Methyl-benzo[b]thiophen-2-yl)-N-(4-fluoro-3-trifluoromethyl-benzyl)-3-(2-methyl-pyrimidin-4-yl)-benzenesulfonamide], the half-inhibitory concentration (IC50) is 9.4 nM and the inhibition at 0.2 µM was determined as 98%. On to `Cc1nccc(-c2cccc(S(=O)(=O)N(CCCC(F)(F)F)c3sc4ccccc4c3C)c2)n1` [Compound 354, N-(3-Methyl-benzo[b]thiophen-2-yl)-N-(4,4,4-trifluoro-butyl)-3-(2-methyl-pyrimidin-4-yl)-benzenesulfonamide], for which the half-maximal inhibitory concentration (IC50) amounted to 106 nM and the inhibition at 0.2 µM is 87%.

Turning to `COc1ccc(S(=O)(=O)N(Cc2ccc(F)c(C(F)(F)F)c2)c2sc3ccccc3c2C)c2cccnc12` [Compound 355], the IC50 stood at 29.6 nM and the “% Inh @ 0.2 (μM)” value is on record as 92%. For `COc1ccc(S(=O)(=O)N(CCCC(F)(F)F)c2sc3ccccc3c2C)c2cccnc12` [Compound 356, N-(3-Methyl-benzo[b]thiophen-2-yl)-N-(4,4,4-trifluoro-butyl)-8-methoxyquinolin-5-ylsulfonamide], the IC50 is 41.6 nM and the inhibition at 0.2 µM was found to be 93%. The corresponding values for `COc1ncccc1S(=O)(=O)N(Cc1ccc(F)c(C(F)(F)F)c1)c1sc2ccccc2c1C` [Compound 357, N-(3-Methyl-benzo[b]thiophen-2-yl)-N-(4-fluoro-3-trifluoromethyl-benzyl)-2-methoxy-pyridin-3-ylsulfonamide] are 19 nM and 95%.

As to `Cc1c(N(Cc2ccc(F)c(C(F)(F)F)c2)S(=O)(=O)c2cccnc2N(C)C)sc2ccccc12` [Compound 358, N-(3-Methyl-benzo[b]thiophen-2-yl)-N-(4-fluoro-3-trifluoromethyl-benzyl)-2-dimethylamino-pyridin-3-yl-sulfonamide], the half-inhibitory concentration (IC50) is 12 nM and the inhibition at 0.2 µM was determined as 92%. In the same order, the values of `COc1ccc(S(=O)(=O)N(Cc2ccc(F)c(C(F)(F)F)c2)c2sc3ccccc3c2C)cn1` [Compound 359] are 17 nM and 93%.

The IC50 is the concentration that gives 50% inhibition.
